Test results: patent publication US6710168B1, “Glycopeptide antibiotics, combinatorial libraries of glycopeptide antibiotics and methods of producing same” (The Trustees of the University of Princeton, priority 1999, dated 2004)
Converted amounts (≈) assume the structure as drawn.

How the values were obtained:
Format in all cases: cell-based
[1] = test system: Enterococcus faecium CL5137, VanA; assay: MIC susceptibility test; settings: Enterococcus faecium CL5137, VanA; for MIC: read-out: MIC CL5137
[2] = test system: gentamicin, streptmycin, vancomycin resistant Enterococcus faecalis (ATCC 51299); assay: microbe, parasite or virus in culture; settings: for MIC VREF: Enterococcus faecalis ATCC51299, vancomycin resistance; for MIC: Enterococcus faecalis, ATCC51299, read-out: MIC VREF
Procedure: (§1) Evaluation of vancomycin analogs is performed using in vitro susceptibility tests and a time-kill assay. [NCCL Standard, 1993] In susceptibility tests, five strains of bacteria, two of the most important: Staphylococcus aureus and Enterococcus faecalis (both susceptible and resistant strains), and Bacillus cereus are chosen and bacteria viability remaining in each well is evaluated using a colorimetric assay based on the tetrazolium salt 3-(4,5-dimethyl-2-thiazolyl)-2,5-diphenyl-2H tetrazolium bromide (MTT) and minimum inhibitory concentration (MIC) values are determined as μg/mL. [Mosmann, T. (1983); Damour, O., et al. (1992); Mikami, Y., et al. (1994)] This assay gives susceptibility information quickly, efficiently, and clearly.
(§2) All strains [Bacillus cereus (ATCC® 11778), Staphylococcus aureus (ATCC® 29213), Methicillin resistant Staphylococcus aureus (ATCC® 33591), Enterococcus faecalis (ATCC® 29212), and gentamicin, streptmycin, vancomycin resistant Enterococcus faecalis (ATCC® 51299), are purchased from REMEL (Lenexa, Kans.).
(§3) MICs are determined by the microdilution method using 96-well microplates. Samples are suspended with Cation Adjusted (20 to 25 mg of Ca^2+/mL and 10 to […] of Mg^2+) Mueller-Hinton broth (Difco Laboratories, Detroit, Mich.) and are two-fold diluted from 5 μg/mL to […] on microplates (12 step dilution). To each well, which contained 100 μL of cell suspension (10^6 CFU/mL), 100 μL of antibiotic solution is added and the plates are incubated at 37° C. for 24 h. 50 μL of MTT solution (1 mg/mL) is added to each well, then the plates are incubated under the same conditions (incubation time; 30 min for Bacillus cereus, Staphylococcus aureus, and Methicillin resistant Staphylococcus aureus; 2 hours for Enterococcus faecalis and Gentamicin, Streptmycin, Vancomycin Enterococcus faecalis). MTT is a yellow tetrazolium salt that is reduced by mitochondrial enzymes in viable cells to an insoluble blue formazan product. MIC values are evaluated by observing the lowest drug concentration to inhibit bacteria growth.

[3] = test system: Enterococcus faecalis CL5244, VanB; assay: MIC susceptibility test; settings: Enterococcus faecalis CL5244, VanB; for MIC: read-out: MIC CL5244
Procedure: as §1, §3

[4] = test system: Enterococcus faecalis (ATCC 29212); assay: MIC susceptibility test, microdilution with MTT readout; settings: Enterococcus faecalis ATCC29212; for MIC: read-out: MIC EF
Procedure: as §1, §2, §3

[5] = test system: Bacillus cereus (ATCC 11778); assay: as above; settings: for MIC BC: Bacillus ceres ATCC11778; for MIC: Bacillus cereus, ATCC11778, read-out: MIC BC
Procedure: as §1, §2, §3

[6] = test system: Methicillin resistant Staphylococcus aureus (ATCC 33591); assay: as above; settings: Staphylococcus aureus ATCC3359, Methicillin resistance; for MIC: ATCC 3359 / ATCC 33591 / MRSA, read-out: MIC MRSA
Procedure: as §1, §2, §3

[7] = test system: Staphylococcus aureus (ATCC 29213); assay: as above; settings: Staphylococcus aureus ATCC29213; for MIC: read-out: MIC SA
Procedure: as §1, §2, §3

| SMILES | MIC CL5137 [1] | MIC VREF [2] | MIC CL5244 [3] | MIC EF [4] | MIC BC [5] | MIC MRSA [6] | MIC SA [7] | MIC [1] | MIC [2] | MIC [3] | MIC [4] | MIC [5] | MIC [6] | MIC [7] |
| --- | --- | --- | --- | --- | --- | --- | --- | --- | --- | --- | --- | --- | --- | --- |
| CNC(CC(C)C)C(=O)NC1C(=O)NC(CC(N)=O)C(=O)NC2C(=O)NC3C(=O)NC(C(=O)NC(C(=O)O)c4cc(O)cc(O)c4-c4cc3ccc4O)C(O)c3ccc(c(Cl)c3)Oc3cc2cc(c3OC2OC(CSc3ccccc3)C(O)C(O)C2OC2CC(C)(N)C(O)C(C)O2)Oc2ccc(cc2Cl)C1O (stereo not drawn) [LIV, Glucose-C6-thiophenyl Vancomycin] | 50< μg/mL | 2.5 µg/mL (≈ 1.62 µM) | 13 µg/mL (≈ 8.43 µM) | 1.3 µg/mL (≈ 0.843 µM) | 1.3 µg/mL (≈ 0.843 µM) | 0.63 µg/mL (≈ 0.409 µM) | 1.0 µg/mL (≈ 0.649 µM) | – | – | – | – | – | – | – |
| CN[C@@H](CC(C)C)C(=O)N[C@H]1C(=O)N[C@@H](CC(N)=O)C(=O)N[C@H]2C(=O)NC3C(=O)N[C@H](C(=O)N[C@@H](C(=O)O)c4cc(O)cc(O)c4-c4cc3ccc4O)[C@H](O)c3ccc(c(Cl)c3)Oc3cc2cc(c3OC2OC(CSc3ccc(Br)cc3)C(O)C(O)C2OC2CC(C)(N)C(O)C(C)O2)Oc2ccc(cc2Cl)[C@H]1O (stereo partly drawn) [LIX, Glucose-C6-1-thio-4-bromobenzene Vancomycin] | – | – | – | – | – | – | – | > 50 µg/mL | 0.32 µg/mL (≈ 0.197 µM) | 6.3 µg/mL (≈ 3.89 µM) | 1 µg/mL (≈ 0.617 µM) | 1.3 µg/mL (≈ 0.802 µM) | 1 µg/mL (≈ 0.617 µM) | 0.63 µg/mL (≈ 0.389 µM) |
| CNC(CC(C)C)C(=O)NC1C(=O)NC(CC(N)=O)C(=O)NC2C(=O)NC3C(=O)NC(C(=O)NC(C(=O)O)c4cc(O)cc(O)c4-c4cc3ccc4O)C(O)c3ccc(c(Cl)c3)Oc3cc2cc(c3OC2OC(CSc3cccc(Cl)c3)C(O)C(O)C2OC2CC(C)(N)C(O)C(C)O2)Oc2ccc(cc2Cl)C1O (stereo not drawn) [LV, Glucose-C6-3-chlorothiophenyl Vancomycin] | 50< μg/mL | 0.63 µg/mL (≈ 0.4 µM) | 3.2 µg/mL (≈ 2.03 µM) | 0.63 µg/mL (≈ 0.4 µM) | 0.63 µg/mL (≈ 0.4 µM) | 0.32 µg/mL (≈ 0.203 µM) | 0.48 µg/mL (≈ 0.305 µM) | – | – | – | – | – | – | – |
| CNC(CC(C)C)C(=O)NC1C(=O)NC(CC(N)=O)C(=O)NC2C(=O)NC3C(=O)NC(C(=O)NC(C(=O)O)c4cc(O)cc(O)c4-c4cc3ccc4O)C(O)c3ccc(c(Cl)c3)Oc3cc2cc(c3OC2OC(CSc3nc(N)n[nH]3)C(O)C(O)C2OC2CC(C)(N)C(O)C(C)O2)Oc2ccc(cc2Cl)C1O (stereo not drawn) [LVI, Glucose-C6-3-amino-5-mercapto-1,2,4-triazole Vancomycin] | 50< μg/mL | 0.63 µg/mL (≈ 0.407 µM) | 1.6 µg/mL (≈ 1.03 µM) | 0.63 µg/mL (≈ 0.407 µM) | 1.0 µg/mL (≈ 0.646 µM) | 0.63 µg/mL (≈ 0.407 µM) | 0.48 µg/mL (≈ 0.31 µM) | – | – | – | – | – | – | – |
| CNC(CC(C)C)C(=O)NC1C(=O)NC(CC(N)=O)C(=O)NC2C(=O)NC3C(=O)NC(C(=O)NC(C(=O)O)c4cc(O)cc(O)c4-c4cc3ccc4O)C(O)c3ccc(c(Cl)c3)Oc3cc2cc(c3OC2OC(Cn3ccnc3)C(O)C(O)C2OC2CC(C)(N)C(O)C(C)O2)Oc2ccc(cc2Cl)C1O (stereo not drawn) [LVII, Glucose-C6-imidazole Vancomycin] | 50< μg/mL | 5.0 µg/mL (≈ 3.33 µM) | 50 µg/mL (≈ 33.3 µM) | 2.5 µg/mL (≈ 1.67 µM) | 2.5 µg/mL (≈ 1.67 µM) | 1.9 µg/mL (≈ 1.27 µM) | 1.3 µg/mL (≈ 0.867 µM) | – | – | – | – | – | – | – |
| CN[C@@H](CC(C)C)C(=O)N[C@H]1C(=O)N[C@@H](CC(N)=O)C(=O)N[C@H]2C(=O)NC3C(=O)N[C@H](C(=O)N[C@@H](C(=O)O)c4cc(O)cc(O)c4-c4cc3ccc4O)[C@H](O)c3ccc(c(Cl)c3)Oc3cc2cc(c3OC2OC(CSc3nnnn3C)C(O)C(O)C2OC2CC(C)(N)C(O)C(C)O2)Oc2ccc(cc2Cl)[C@H]1O (stereo partly drawn) [LVIII, Glucose-C6-5-thio-1-methyl-tetrazole Vancomycin] | – | – | – | – | – | – | – | > 50 µg/mL | 5 µg/mL (≈ 3.23 µM) | 50 µg/mL (≈ 32.3 µM) | 2.5 µg/mL (≈ 1.62 µM) | 1.3 µg/mL (≈ 0.84 µM) | 2.5 µg/mL (≈ 1.62 µM) | 1.9 µg/mL (≈ 1.23 µM) |
